Where a name gives a salt, the structure may show the parent alone.

The test system of data set [1] is Pneumocystis carinii. Nature of the data set: animal or person. The class given is in vivo, Pneumocystis carinii; rat. The following applies: for response vs control in vivo at 10 µmol/kg: 10.0 μmol/kg/day iv via tail vein, rats (4 rats for 3, 4, 9). From the text: The activity is expressed as the percent of cysts counted in treated groups as compared to untreated controls. All of the compounds in the initial screen were given by tail vein injection at a dose of 10 μmol/kg/day for 14 days. The test compounds were compared for efficacy with the standard anti-PCP compound, pentamidine, at one-half the dose of pentamidine. […] Among the 2,8-substituted derivatives, the diamidine 1 and the bis-N-isopropylamidine 2 were very potent. A dose response study was performed upon compound 2.
^c Expressed as μmol/kg/day, given iv via tail vain to at least 8
rats once daily for 14 days, unless stated otherwise.
^e Cysts/g lung counts were 69.18 (× 10^6) for the saline
control group and 0.51 (× 10^6) for the pentamidine group. These
scores were pooled across experiments involving compounds 1-9. Saline: n =
55; pentamidine: n = 52.
^g Doses given to 4 rats.
^h Doses given by oral gavage.

The subject of data set [2] is Pneumocystis carinii. The note with it: rat, in vivo; cited from earlier work.
Data set [3] has as its system Pneumocystis carinii. The experiment in a line: Activity against Pneumocystis carinii pneumonia (PCP) in the rat model, dibenzofuran dications (Example 2, Table 2). The class given is in vivo. The following applies: for response vs control in vivo at 33 µmol/kg / response vs control in vivo at 22 µmol/kg / response vs control in vivo at 10 µmol/kg: Pneumocystis carinii, 336 h, read-out: Pneumocystis carinii % Saline control ± std error; for response vs control in vivo at 33 µmol/kg: 33.0 μmol/kg/day by oral gavage; for response vs control in vivo at 22 µmol/kg / response vs control in vivo at 10 µmol/kg: iv. From the text:
Compounds 1-3 and 5-7 in the initial screen were given once daily by tail vein injection at a dose of 10 μmol/kg/day for 14 days, with activities compared to pentamidine at approximately one-half the effective iv dose of pentamidine, which is 22 μmol/kg/day.
Compounds 4 and 8 were synthesized to test if diamidoximes would be effective prodrugs of the dibenzofuran diamidines. Both the diamidoximes were screened for anti-P. carinii activity at 10 μmol/kg/day by tail vein injection and 33 μmol/kg/day by oral gavage for 14 days. […] Further studies of diamidoxime metabolism are being performed using cultured cell lines and cell-free enzyme preparations to understand more about the metabolic mechanisms of prodrug activation.
^a Dose units were μmol/kg/day. Each compound was administered to 8
rats once daily for 14 days. Doses marked with (*) were by oral gavage,
all others were i.v. via tail vein.
^c Cysts/g lung counts for the saline and pentamidine control groups
were pooled across experiments. Scores for each compound were reported as
% of the pooled saline scores. Saline: 47.53 × 10^6 cysts/g lung
(n = 45). Petamidine: 0.38 × 10^6 cysts/g lung (n = 42).

The subject of the next data set is whole cells. Nature of the data set: Conversion of diamidoxime to diamidine by whole cells (Example 2). The class given is in vitro ADME. The note with it: preliminary results.
[4] abbreviates: Pneumocystis carinii, in Rattus norvegicus, iv, 336 h, once daily 14 days, read-out: Pneumocystis carinii % Saline control ± std error.
Setting [5] is: 10.0 μmol/kg/day i.v. via tail vein, once daily 14 days, 8 rats.

Turning to `CC(C)NC(=N)c1ccc2c(c1)sc1cc(C(=N)NC(C)C)ccc12` [Compound 8], in the data set with Pneumocystis carinii [1] (setting [4]), the response vs control in vivo at 10 µmol/kg is 0.04 ± 0.02%.
Take `Cl.Cl.N=C(NO)c1ccc2c(c1)sc1cc(C(=N)NO)ccc12` [Compound 9 (Example 1), 3,7-Bis(N-hydroxyamidino)dibenzothiophene dihydrochloride]: the response vs control in vivo at 10 µmol/kg in the data set on Pneumocystis carinii [1] (setting [4]) was 112 ± 76.5%. In addition, in the data set on Pneumocystis carinii [1] (Pneumocystis carinii, in Rattus norvegicus, po, 336 h, 33.0 μmol/kg/day by oral gavage, once daily 14 days, 4 rats, read-out: Pneumocystis carinii % Saline control ± std error), the response vs control in vivo at 33 µmol/kg was determined as 45.6 ± 26.1%. In addition, in the data set on Pneumocystis carinii [1] (intravenous and oral administration), the “anti-PCP activity by both routes (in words)” value is “inactive by both intravenous and oral administration”.
Regarding `N/C(=N\O)c1ccc(OCCCCCOc2ccc(/C(N)=N/O)cc2)cc1` [Pentamidoxime, reference compound], the “prodrug behaviour (in words)” value in the data set with Pneumocystis carinii [2] is listed as “an effective prodrug”. Besides, the response vs control in vivo at 33 µmol/kg in the data set with Pneumocystis carinii [3] (once daily 14 days, 8 rats) was 13.8 ± 9.12%. Further, the response vs control in vivo at 22 µmol/kg with Pneumocystis carinii [3] (22.0 μmol/kg/day i.v. via tail vein, once daily 14 days, 8 rats) was determined as 0.11 ± 0.02%.
Take `CC(C)NC(=N)c1ccc2sc3ccc(C(=N)NC(C)C)cc3c2c1` [Compound 2]: the response vs control in vivo at 0.1 µmol/kg in the data set with Pneumocystis carinii [1] (Pneumocystis carinii, in Rattus norvegicus, iv, 336 h, 0.1 μmol/kg/day iv, once daily 14 days, rats, read-out: Pneumocystis carinii % Saline control ± std error) was 94.8 ± 28.3%. In addition, the response vs control in vivo at 1 µmol/kg in the data set on Pneumocystis carinii [1] (Pneumocystis carinii, in Rattus norvegicus, iv, 336 h, 1.0 μmol/kg/day iv, once daily 14 days, rats, read-out: Pneumocystis carinii % Saline control ± std error) stood at 12.8 ± 4.02%. For the same compound, in the data set with Pneumocystis carinii [1] (Pneumocystis carinii, in Rattus norvegicus, iv, 336 h, 2.5 μmol/kg/day iv, once daily 14 days, rats, read-out: Pneumocystis carinii % Saline control ± std error), the response vs control in vivo at 2.5 µmol/kg amounted to 0.19 ± 0.1%. Further, the response vs control in vivo at 5 µmol/kg in the data set on Pneumocystis carinii [1] (Pneumocystis carinii, in Rattus norvegicus, iv, 336 h, 5.0 μmol/kg/day iv, once daily 14 days, rats, read-out: Pneumocystis carinii % Saline control ± std error) is 0.04 ± 0.01%. For the same compound, in the data set with Pneumocystis carinii [1] (setting [4]), the response vs control in vivo at 10 µmol/kg was 0.01 ± 0.01%.
For `c1cc2c(cc1C1=NCCN1)oc1cc(C3=NCCN3)ccc12` [Compound 6 (Example 2), 3,7-Di(2-imidazolinyl)dibenzofuran dihydrochloride], in the data set on Pneumocystis carinii [3] (setting [5]), the response vs control in vivo at 10 µmol/kg amounted to 220 ± 39.3%.
In the case of `c1cc2sc3ccc(C4=NCCN4)cc3c2cc1C1=NCCN1` [Compound 5], in the data set with Pneumocystis carinii [1] (setting [4]), the response vs control in vivo at 10 µmol/kg came out at 28 ± 12.7%.
The same measure, in the same setting: with `N=C(N)c1ccc2sc3ccc(C(=N)N)cc3c2c1` [Compound 1] the figure was 0.1 ± 0.03%; with `NC(=NO)c1ccc2sc3ccc(C(N)=NO)cc3c2c1` [Compound 3], 1.3 ± 0.84%.
Take `CC(C)NC(=N)c1ccc2oc3ccc(C(=N)NC(C)C)cc3c2c1` [Compound 3 (Example 2), 2,8-Di(N-isopropylamidino)dibenzofuran dihydrochloride]: in the data set on Pneumocystis carinii [3] (setting [5]), the response vs control in vivo at 10 µmol/kg worked out at 0.5 ± 0.27%.
On to `Cl.Cl.N=C(NO)c1ccc2oc3ccc(C(=N)NO)cc3c2c1` [Compound 4 (Example 2), 2,8-Di(N-hydroxylamidino)dibenzofuran dihydrochloride], for which, in the data set with whole cells, the “conversion of diamidoxime to diamidine (in words)” value is given as “less efficient than conversion of pentamidoxime to pentamidine by whole cells”. Besides, the response vs control in vivo at 33 µmol/kg with Pneumocystis carinii [3] (once daily 14 days, 8 rats) was 45.1 ± 21.6%. The response vs control in vivo at 10 µmol/kg in the data set on Pneumocystis carinii [3] (setting [5]) is 15.8 ± 14.6%.
In the case of `NC(=NO)c1ccc2c(c1)oc1cc(C(N)=NO)ccc12` [Compound 8 (Example 2), 3,7-Di(A-hydroxylamidino)dibenzofuran dihydrochloride], in the data set with Pneumocystis carinii [3] (once daily 14 days, 8 rats), the response vs control in vivo at 33 µmol/kg was found to be 150 ± 54%. Moreover, in the data set with Pneumocystis carinii [3] (setting [5]), the response vs control in vivo at 10 µmol/kg is 166 ± 109%.
Consider `N=C(N)c1ccc2c(c1)oc1cc(C(=N)N)ccc12` [Compound 5 (Example 2), 3,7-Diamidinodibenzofuran dihydrochloride], for which the response vs control in vivo at 10 µmol/kg in the data set on Pneumocystis carinii [3] (setting [5]) was 183 ± 38.3%.
As to `N=C(N)c1ccc(OCCCCCOc2ccc(C(=N)N)cc2)cc1` [Pentamidine, reference compound], the response vs control in vivo at 22 µmol/kg in the data set on Pneumocystis carinii [1] (Pneumocystis carinii, in Rattus norvegicus, iv, 336 h, read-out: Pneumocystis carinii % Saline control ± std error) was found to be 0.74 ± 0.12%; with Pneumocystis carinii [3] it was 0.8 ± 0.17%. The Cysts/g lung counts in the data set with Pneumocystis carinii [1] (pentamidine group pooled across experiments, n = 52, 22.0 μmol/kg/day iv) is 0.51 × 10^6 cysts/g lung; in the data set with Pneumocystis carinii [3] (pentamidine control group pooled across experiments, n = 42) it was 0.38 × 10^6 cysts/g lung.
As for `N=C(N)c1ccc2oc3ccc(C(=N)N)cc3c2c1` [Compound 1 (Example 2), 2,8-Diamidinodibenzofuran dihydrochloride], in the data set with Pneumocystis carinii [3], the response vs control in vivo at 10 µmol/kg was determined as 7.15 ± 3.81% and the response vs control in vivo at 22 µmol/kg stood at 0.1 ± 0.02%.
Take `CC(C)NC(=N)c1ccc2c(c1)oc1cc(C(=N)NC(C)C)ccc12` [Compound 7 (Example 2), 3,7-Di(isopropylamidino)dibenzofuran dihydrochloride]: in the data set on Pneumocystis carinii [3] (setting [5]), the response vs control in vivo at 10 µmol/kg came to 0.28 ± 0.27%.
Turning to `N=C(N)c1ccc2c(c1)sc1cc(C(=N)N)ccc12` [Compound 7], the response vs control in vivo at 10 µmol/kg in the data set on Pneumocystis carinii [1] (setting [4]) was 36 ± 9.59%.
On the same count and under the same terms, with `O=S1(=O)c2ccc(C3=NCCN3)cc2-c2cc(C3=NCCN3)ccc21` [Compound 6] the figure was 93.5 ± 9.58%.
Regarding `c1cc2oc3ccc(C4=NCCN4)cc3c2cc1C1=NCCN1` [Compound 2 (Example 2), 2,8-Di(2-imidazolinyl)dibenzofuran dihydrochloride], the response vs control in vivo at 10 µmol/kg in the data set with Pneumocystis carinii [3] (setting [5]) was found to be 97.4 ± 31.9%.

The record behind these values is patent US6172104A, “Dicationic dibenzofuran and dibenzothiophene compounds and methods of use thereof” (priority 1999, dated 2001).
